Values quoted from earlier work in PubChem BioAssay AID1259409 (Chemical Carcinogenesis Research Information System (CCRIS), 2018).

System: rodent chemically induced tumor inhibition, incidence and multiplicity
Assay: CCRIS tumor inhibitor studies
Conditions: Dose [Inhibitor]: 0, Route [Inhibitor]: DERMAL, Species: MOUSE, Strain/Sex: SENCAR/FEMALE, Target Tissue: Type of Lesion: SKIN: PAPILLOMA

## C#Cc1ccc2ccc3cccc4ccc1c2c34
Carcinogen: 7,12-DIMETHYLBENZ[A]ANTHRACENE, 57-97-6, 0.044 NMOL IN 0.2 ML ACETONE APPLIED TO BACK ONCE 5 MIN PRIOR TO CARCINOGEN DOSE (STUDY DURATION: 26 WK), Dose [Carcinogen]: 10 NMOL IN 0.2 ML ACETONE APPLIED TO BACK ONCE.
  tumour outcome (control, treated, inhibition, significance): 100%, 93%, 7%, not calculated
Carcinogen: 7,12-DIMETHYLBENZ[A]ANTHRACENE, 57-97-6, 0.44 NMOL IN 0.2 ML ACETONE APPLIED TO BACK ONCE 5 MIN PRIOR TO CARCINOGEN DOSE (STUDY DURATION: 20 WK), Dose [Carcinogen]: 10 NMOL IN 0.2 ML ACETONE APPLIED TO BACK ONCE.
  tumour outcome (control, treated, inhibition, significance): 100%, 50%, 50%, not calculated
Carcinogen: 7,12-DIMETHYLBENZ[A]ANTHRACENE, 57-97-6, 0.44 NMOL IN 0.2 ML ACETONE APPLIED TO BACK ONCE 5 MIN PRIOR TO CARCINOGEN DOSE (STUDY DURATION: 26 WK), Dose [Carcinogen]: 10 NMOL IN 0.2 ML ACETONE APPLIED TO BACK ONCE.
  outcome: 100%, 100%, 0, not calculated
Carcinogen: 7,12-DIMETHYLBENZ[A]ANTHRACENE, 57-97-6, 4.4 NMOL IN 0.2 ML ACETONE APPLIED TO BACK ONCE 5 MIN PRIOR TO CARCINOGEN DOSE (STUDY DURATION: 26 WK), Dose [Carcinogen]: 10 NMOL IN 0.2 ML ACETONE APPLIED TO BACK ONCE.
  tumour outcome (control, treated, inhibition, significance): 100%, 83%, 17%, not calculated
Carcinogen: 7,12-DIMETHYLBENZ[A]ANTHRACENE, 57-97-6, 22 NMOL IN 0.2 ML ACETONE APPLIED TO BACK ONCE 5 MIN PRIOR TO CARCINOGEN DOSE (STUDY DURATION: 26 WK), Dose [Carcinogen]: 10 NMOL IN 0.2 ML ACETONE APPLIED TO BACK ONCE.
  tumour outcome (control, treated, inhibition, significance): 100%, 60%, 40%, not calculated
Carcinogen: 7,12-DIMETHYLBENZ[A]ANTHRACENE, 57-97-6, 44 NMOL IN 0.2 ML ACETONE APPLIED TO BACK ONCE 5 MIN PRIOR TO CARCINOGEN DOSE (STUDY DURATION: 26 WK), Dose [Carcinogen]: 10 NMOL IN 0.2 ML ACETONE APPLIED TO BACK ONCE.
  tumour outcome (control, treated, inhibition, significance): 100%, 35%, 65%, not calculated
Carcinogen: 7,12-DIMETHYLBENZ[A]ANTHRACENE, 57-97-6, 440 NMOL IN 0.2 ML ACETONE APPLIED TO BACK ONCE 5 MIN PRIOR TO CARCINOGEN DOSE (STUDY DURATION: 20 WK), Dose [Carcinogen]: 10 NMOL IN 0.2 ML ACETONE APPLIED TO BACK ONCE.
  tumour outcome (control, treated, inhibition, significance): 100%, 24%, 76%, not calculated
Carcinogen: 7,12-DIMETHYLBENZ[A]ANTHRACENE, 57-97-6, 4400 NMOL IN 0.2 ML ACETONE APPLIED TO BACK ONCE., Dose [Carcinogen]: 10 NMOL IN 0.2 ML ACETONE APPLIED TO BACK ONCE.
  tumour outcome (control, treated, inhibition, significance): 100%, 0%, 100%, not calculated
Carcinogen: BENZO[A]PYRENE, 50-32-8, 22 NMOL IN 0.2 ML ACETONE APPLIED TO BACK ONCE 5 MIN PRIOR TO CARCINOGEN DOSE (STUDY DURATION: 26 WK), Dose [Carcinogen]: 200 NMOL IN 0.2 ML ACETONE APPLIED TO BACK ONCE.
  tumour outcome (control, treated, inhibition, significance): 100%, 91%, 9%, not calculated
Carcinogen: BENZO[A]PYRENE, 50-32-8, 44 NMOL IN 0.2 ML ACETONE APPLIED TO BACK ONCE 5 MIN PRIOR TO CARCINOGEN DOSE (STUDY DURATION: 26 WK), Dose [Carcinogen]: 200 NMOL IN 0.2 ML ACETONE APPLIED TO BACK ONCE.
  tumour outcome (control, treated, inhibition, significance): 100%, 96%, 4%, not calculated
Carcinogen: BENZO[A]PYRENE, 50-32-8, 440 NMOL IN 0.2 ML ACETONE APPLIED TO BACK ONCE 5 MIN PRIOR TO CARCINOGEN DOSE (STUDY DURATION: 26 WK), Dose [Carcinogen]: 200 NMOL IN 0.2 ML ACETONE APPLIED TO BACK ONCE.
  tumour outcome (control, treated, inhibition, significance): 100%, 74%, 26%, not calculated
Carcinogen: BENZO[A]PYRENE, 50-32-8, 4400 NMOL IN 0.2 ML ACETONE APPLIED TO BACK ONCE 5 MIN PRIOR TO CARCINOGEN DOSE (STUDY DURATION: 20 WK), Dose [Carcinogen]: 200 NMOL IN 0.2 ML ACETONE APPLIED TO BACK ONCE.
  tumour outcome (control, treated, inhibition, significance): 75%, 59%, 21%, not calculated
Carcinogen: BENZO[A]PYRENE, 50-32-8, 4400 NMOL IN 0.2 ML ACETONE APPLIED TO BACK ONCE 5 MIN PRIOR TO CARCINOGEN DOSE (STUDY DURATION: 26 WK), Dose [Carcinogen]: 200 NMOL IN 0.2 ML ACETONE APPLIED TO BACK ONCE.
  tumour outcome (control, treated, inhibition, significance): 100%, 71%, 29%, not calculated
Carcinogen: BENZO[A]PYRENE, 50-32-8, 22000 NMOL IN 0.2 ML ACETONE APPLIED TO BACK ONCE 5 MIN PRIOR TO CARCINOGEN DOSE (STUDY DURATION: 20 WK), Dose [Carcinogen]: 200 NMOL IN 0.2 ML ACETONE APPLIED TO BACK ONCE.
  tumour outcome (control, treated, inhibition, significance): 75%, 35%, 53%, not calculated
Carcinogen: BENZO[A]PYRENE, 50-32-8, 44000 NMOL IN 0.2 ML ACETONE APPLIED TO BACK ONCE 5 MIN PRIOR TO CARCINOGEN DOSE (STUDY DURATION: 20 WK), Dose [Carcinogen]: 200 NMOL IN 0.2 ML ACETONE APPLIED TO BACK ONCE.
  tumour outcome (control, treated, inhibition, significance): 75%, 22%, 71%, not calculated
Carcinogen: N-METHYL-N'-NITRO-N-NITROSOGUANIDINE, 70-25-7, 4400 NMOL IN 0.2 ML ACETONE APPLIED TO BACK ONCE 5 MIN PRIOR TO CARCINOGEN DOSE (STUDY DURATION: 20 WK), Dose [Carcinogen]: 2500 NMOL IN 0.2 ML ACETONE APPLIED TO BACK ONCE.
  tumour outcome (control, treated, inhibition, significance): 78%, 78%, 0%, not significant
